Data as given in PubChem BioAssay (NCI).
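Five compound concentrations were applied to cells in 96-well plates for 48 hours; endpoints were derived by simple linear interpolation of the resulting dose-response curve. TGI: concentration producing complete growth inhibition.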

How the values were obtained:
Assay in all cases: NCI tumour cell line growth inhibition, 48 h
786-0 renal = system: 786-0 renal
A549 NSCLC = system: A549 NSCLC
ACHN renal = system: ACHN renal
BT-549 breast = system: BT-549 breast
CAKI-1 renal = system: CAKI-1 renal
CCRF-CEM leukemia = system: CCRF-CEM leukemia
COLO 205 colon = system: COLO 205 colon
DU-145 prostate = system: DU-145 prostate
EKVX NSCLC = system: EKVX NSCLC
HCC-2998 colon = system: HCC-2998 colon
HCT-116 colon = system: HCT-116 colon
HCT-15 colon = system: HCT-15 colon
HL-60(TB) leukemia = system: HL-60(TB) leukemia
HOP-62 NSCLC = system: HOP-62 NSCLC
HOP-92 NSCLC = system: HOP-92 NSCLC
HS 578T breast = system: HS 578T breast
HT29 colon = system: HT29 colon
IGROV1 ovarian = system: IGROV1 ovarian
KM12 colon = system: KM12 colon
LOX IMVI melanoma = system: LOX IMVI melanoma
M14 melanoma = system: M14 melanoma
MALME-3M melanoma = system: MALME-3M melanoma
MCF7 breast = system: MCF7 breast
MDA-MB-231 breast = system: MDA-MB-231 breast
MDA-MB-435 = system: MDA-MB-435
MDA-N = system: MDA-N
MOLT-4 leukemia = system: MOLT-4 leukemia
NCI-H226 lung = system: NCI-H226 lung
NCI-H23 lung = system: NCI-H23 lung
NCI-H460 lung = system: NCI-H460 lung
NCI-H522 lung = system: NCI-H522 lung
NCI/ADR-RES ovarian = system: NCI/ADR-RES ovarian
OVCAR-3 ovarian = system: OVCAR-3 ovarian
OVCAR-4 ovarian = system: OVCAR-4 ovarian
OVCAR-5 ovarian = system: OVCAR-5 ovarian
OVCAR-8 ovarian = system: OVCAR-8 ovarian
PC-3 prostate = system: PC-3 prostate
RPMI-8226 leukemia = system: RPMI-8226 leukemia
SF-268 CNS = system: SF-268 CNS
SF-295 CNS = system: SF-295 CNS
SF-539 CNS = system: SF-539 CNS
SK-MEL-2 melanoma = system: SK-MEL-2 melanoma
SK-MEL-28 melanoma = system: SK-MEL-28 melanoma
SK-MEL-5 melanoma = system: SK-MEL-5 melanoma
SK-OV-3 ovarian = system: SK-OV-3 ovarian
SN12C renal = system: SN12C renal
SNB-19 CNS = system: SNB-19 CNS
SNB-75 CNS = system: SNB-75 CNS
SR leukemia = system: SR leukemia
SW-620 colon = system: SW-620 colon
T-47D breast = system: T-47D breast
TK-10 renal = system: TK-10 renal
U251 CNS = system: U251 CNS
UACC-257 melanoma = system: UACC-257 melanoma
UACC-62 melanoma = system: UACC-62 melanoma
UO-31 renal = system: UO-31 renal
A498 renal = system: A498 renal
K-562 leukemia = system: K-562 leukemia
RXF 393 renal = system: RXF 393 renal

COc1ccc(C(=O)N2CCN(c3ccc4c(c3)OCC(=O)N4)CC2)cc1
TGI (786-0 renal): > 100 µM | TGI (A549 NSCLC): > 100 µM | TGI (ACHN renal): > 100 µM | TGI (BT-549 breast): > 100 µM | TGI (CAKI-1 renal): > 100 µM | TGI (CCRF-CEM leukemia): > 100 µM | TGI (COLO 205 colon): > 100 µM | TGI (DU-145 prostate): > 100 µM | TGI (EKVX NSCLC): > 100 µM | TGI (HCC-2998 colon): > 100 µM | TGI (HCT-116 colon): > 100 µM | TGI (HCT-15 colon): > 100 µM | TGI (HL-60(TB) leukemia): > 100 µM | TGI (HOP-62 NSCLC): > 100 µM | TGI (HOP-92 NSCLC): > 100 µM | TGI (HS 578T breast): > 100 µM | TGI (HT29 colon): > 100 µM | TGI (IGROV1 ovarian): > 100 µM | TGI (KM12 colon): > 100 µM | TGI (LOX IMVI melanoma): > 100 µM | TGI (M14 melanoma): > 100 µM | TGI (MALME-3M melanoma): > 100 µM | TGI (MCF7 breast): > 100 µM | TGI (MDA-MB-231 breast): > 100 µM | TGI (MDA-MB-435): > 100 µM | TGI (MDA-N): > 100 µM | TGI (MOLT-4 leukemia): > 100 µM | TGI (NCI-H226 lung): > 100 µM | TGI (NCI-H23 lung): > 100 µM | TGI (NCI-H460 lung): > 100 µM | TGI (NCI-H522 lung): > 100 µM | TGI (NCI/ADR-RES ovarian): > 100 µM | TGI (OVCAR-3 ovarian): > 100 µM | TGI (OVCAR-4 ovarian): > 100 µM | TGI (OVCAR-5 ovarian): > 100 µM | TGI (OVCAR-8 ovarian): > 100 µM | TGI (PC-3 prostate): > 100 µM | TGI (RPMI-8226 leukemia): > 100 µM | TGI (SF-268 CNS): > 100 µM | TGI (SF-295 CNS): > 100 µM | TGI (SF-539 CNS): > 100 µM | TGI (SK-MEL-2 melanoma): > 100 µM | TGI (SK-MEL-28 melanoma): > 100 µM | TGI (SK-MEL-5 melanoma): > 100 µM | TGI (SK-OV-3 ovarian): > 100 µM | TGI (SN12C renal): > 100 µM | TGI (SNB-19 CNS): > 100 µM | TGI (SNB-75 CNS): > 100 µM | TGI (SR leukemia): > 100 µM | TGI (SW-620 colon): > 100 µM | TGI (T-47D breast): > 100 µM | TGI (TK-10 renal): > 100 µM | TGI (U251 CNS): > 100 µM | TGI (UACC-257 melanoma): > 100 µM | TGI (UACC-62 melanoma): > 100 µM | TGI (UO-31 renal): > 100 µM

NCCNCC(O)CO (configuration not stated)
TGI (786-0 renal): > 100 µM | TGI (A498 renal): > 100 µM | TGI (A549 NSCLC): > 100 µM | TGI (ACHN renal): > 100 µM | TGI (BT-549 breast): > 100 µM | TGI (CAKI-1 renal): > 100 µM | TGI (COLO 205 colon): > 100 µM | TGI (DU-145 prostate): > 100 µM | TGI (EKVX NSCLC): > 100 µM | TGI (HCT-116 colon): > 100 µM | TGI (HCT-15 colon): > 100 µM | TGI (HL-60(TB) leukemia): > 100 µM | TGI (HOP-62 NSCLC): > 100 µM | TGI (HOP-92 NSCLC): > 100 µM | TGI (HS 578T breast): > 100 µM | TGI (HT29 colon): > 100 µM | TGI (IGROV1 ovarian): > 100 µM | TGI (K-562 leukemia): > 100 µM | TGI (KM12 colon): > 100 µM | TGI (LOX IMVI melanoma): > 100 µM | TGI (M14 melanoma): > 100 µM | TGI (MALME-3M melanoma): > 100 µM | TGI (MCF7 breast): > 100 µM | TGI (MDA-MB-231 breast): > 100 µM | TGI (MDA-MB-435): > 100 µM | TGI (MDA-N): > 100 µM | TGI (MOLT-4 leukemia): > 100 µM | TGI (NCI-H226 lung): > 100 µM | TGI (NCI-H23 lung): > 100 µM | TGI (NCI-H460 lung): > 100 µM | TGI (NCI-H522 lung): > 100 µM | TGI (NCI/ADR-RES ovarian): > 100 µM | TGI (OVCAR-3 ovarian): > 100 µM | TGI (OVCAR-4 ovarian): > 100 µM | TGI (OVCAR-5 ovarian): > 100 µM | TGI (OVCAR-8 ovarian): > 100 µM | TGI (PC-3 prostate): > 100 µM | TGI (RPMI-8226 leukemia): > 100 µM | TGI (RXF 393 renal): > 100 µM | TGI (SF-268 CNS): > 100 µM | TGI (SF-295 CNS): > 100 µM | TGI (SF-539 CNS): > 100 µM | TGI (SK-MEL-2 melanoma): > 100 µM | TGI (SK-MEL-28 melanoma): > 100 µM | TGI (SK-MEL-5 melanoma): > 100 µM | TGI (SK-OV-3 ovarian): > 100 µM | TGI (SN12C renal): > 100 µM | TGI (SNB-19 CNS): > 100 µM | TGI (SNB-75 CNS): > 100 µM | TGI (SR leukemia): > 100 µM | TGI (SW-620 colon): > 100 µM | TGI (T-47D breast): > 100 µM | TGI (TK-10 renal): > 100 µM | TGI (U251 CNS): > 100 µM | TGI (UACC-257 melanoma): > 100 µM | TGI (UACC-62 melanoma): > 100 µM | TGI (UO-31 renal): > 100 µM

O=C(O)c1c(-c2c3ccc(=O)cc-3oc3cc(O)ccc23)cc2ccccc2c1-c1ccccc1
TGI (786-0 renal): > 100 µM | TGI (A498 renal): > 100 µM | TGI (A549 NSCLC): > 100 µM | TGI (ACHN renal): > 100 µM | TGI (BT-549 breast): > 100 µM | TGI (CAKI-1 renal): > 100 µM | TGI (CCRF-CEM leukemia): > 67.3 µM | TGI (COLO 205 colon): > 100 µM | TGI (DU-145 prostate): > 100 µM | TGI (EKVX NSCLC): > 100 µM | TGI (HCC-2998 colon): > 68.4 µM | TGI (HCT-116 colon): > 100 µM | TGI (HCT-15 colon): > 100 µM | TGI (HL-60(TB) leukemia): > 100 µM | TGI (HOP-62 NSCLC): > 100 µM | TGI (HOP-92 NSCLC): > 100 µM | TGI (HS 578T breast): > 100 µM | TGI (HT29 colon): > 100 µM | TGI (IGROV1 ovarian): > 100 µM | TGI (K-562 leukemia): > 46.4 µM | TGI (KM12 colon): > 100 µM | TGI (LOX IMVI melanoma): > 100 µM | TGI (M14 melanoma): > 100 µM | TGI (MALME-3M melanoma): > 100 µM | TGI (MCF7 breast): > 100 µM | TGI (MDA-MB-231 breast): > 100 µM | TGI (MDA-MB-435): > 100 µM | TGI (MDA-N): > 100 µM | TGI (MOLT-4 leukemia): 8.37 µM | TGI (NCI-H226 lung): > 100 µM | TGI (NCI-H23 lung): > 100 µM | TGI (NCI-H460 lung): > 100 µM | TGI (NCI-H522 lung): > 100 µM | TGI (NCI/ADR-RES ovarian): > 100 µM | TGI (OVCAR-3 ovarian): > 100 µM | TGI (OVCAR-4 ovarian): > 100 µM | TGI (OVCAR-5 ovarian): > 100 µM | TGI (OVCAR-8 ovarian): > 100 µM | TGI (PC-3 prostate): > 100 µM | TGI (RPMI-8226 leukemia): > 100 µM | TGI (RXF 393 renal): > 100 µM | TGI (SF-268 CNS): > 100 µM | TGI (SF-295 CNS): > 100 µM | TGI (SF-539 CNS): > 100 µM | TGI (SK-MEL-2 melanoma): > 100 µM | TGI (SK-MEL-28 melanoma): > 100 µM | TGI (SK-MEL-5 melanoma): > 100 µM | TGI (SK-OV-3 ovarian): > 100 µM | TGI (SN12C renal): > 100 µM | TGI (SNB-19 CNS): > 100 µM | TGI (SNB-75 CNS): > 100 µM | TGI (SR leukemia): > 100 µM | TGI (SW-620 colon): > 100 µM | TGI (T-47D breast): > 100 µM | TGI (TK-10 renal): > 100 µM | TGI (U251 CNS): > 100 µM | TGI (UACC-257 melanoma): > 100 µM | TGI (UACC-62 melanoma): > 100 µM | TGI (UO-31 renal): > 100 µM
